Laboratory results: KR20220022782A, “아모디아퀸 및 아르테수네이트계 약물을 유효성분으로 함유하는 제2형 당뇨병 예방 또는 치료용 약학적 조성물” (priority 2020, dated 2022)

Legend:
[1] = tested on: Akt phosphorylation (Akt 인산화); test: Akt phosphorylation (western blotting) in palmitic acid-induced insulin-resistant C2C12 myotubes (Example 2); format: cell-based, mouse; conditions: single agent; general statement
[2] = Cell activity (cytotoxicity) by Cell Count Kit-8 (CCK8), amodiaquine and artesunate; conditions: mouse, c2c12 myoblast cells
[3] = tested on: C2C12 myoblast cell line (C2C12 myoblast 세포주); test: in vitro
[4] = tested on: C2C12 myotube cell line (C2C12 myotube 세포주); test: Glucose uptake (2-NBDG, Glucose uptake cell-based assay kit) in palmitic acid-induced insulin-resistant C2C12 myotubes (Example 3); set-up: species or system mouse; conditions: single agent; general statement

With `CCN(CC)Cc1cc(Nc2ccnc3cc(Cl)ccc23)ccc1O` [아모디아퀸, 아모디아퀸(amodiaquine)] the “improvement of insulin resistance (in words)” value [1] was “미미한 수준에 불과하다”, the viability at 25 µM [2] was ~80% and the “cytotoxicity (in words)” value [3] was “세포 독성이 없음”. For the same molecule, the “promotion of glucose uptake (in words)” value [4] was “미미한 수준에 불과하다”.
In the case of `C[C@H]1[C@H](OC(=O)CCC(=O)O)O[C@@H]2O[C@@]3(C)CC[C@H]4[C@H](C)CC[C@@H]1[C@@]24OO3` [아르테수네이트, 아르테수네이트(artesunate)], the viability at 12.5 µM [2] is reported as ~80% and the “cytotoxicity (in words)” value [3] is reported as “세포 독성이 없음”.
